# Reference: patent US20060252026A1, “Cryopreservation method for bivalve oocytes” (priority 2005, published 2006)
# Columns and labels:
# [1] = tested on: Eastern Oyster (Crassostrea virginica) oocytes; conditions: Me2SO or sucrose as CPA; cited from earlier work
# [2] = tested on: Pacific oyster (Crassostrea gigas) oocytes; test: Post-thaw fertilisation assay of cryopreserved oocytes; format: cell-based; conditions: for post-thaw fertilisation rate: Example 2.9, ten percent EG
# Method: Cryopreservation straws (0.25 cc, IMV, France) were then loaded with the solution containing oocytes and CPA, sealed with PVC powder and laid flat on a rack. The total time at room temperature was 20 min. Loaded straws were placed into Cryogenesis freezers (Cryologic Pty Ltd, Mt Waverly, Australia) and held at 0° C. for 5 min. […] Following the hold period, the freezers were then programmed to cool at various rates (standard: 1° C. min^-1) to -35° C. at which temperature the straws were plunged into liquid nitrogen and stored. After up to 24 h storage, the straws were thawed by placing into a water bath at 28° C. […] After dilution, the thawed oocytes along with unfrozen oocytes from the same batch (controls) were fertilised using the miniaturised fertilisation assay described previously ([…] Smith, R D Roberts, A R Janke, […] Pugh, S C Webb, N G King, Aquaculture (2004) 242, 271). […] Duplicate assays were conducted on each straw and assays included a negative control where no sperm were added to check for parthenogenetic activation. […] All CPA concentrations are the final post-dilution levels. Fertilisation results from each experiment were used to determine factors to be evaluated in subsequent experiments. […] Each pool comprised oocytes from 4 to 8 oysters. […] Three new pools were selected from 11 available pools for Examples 2.4 to 2.6.
# Pacific oyster oocytes [3] = conditions: Me2SO as CPA in the presence of trehalose; cited from earlier work
# Pacific oyster oocytes [4] = conditions: Me2SO as CPA; cited from earlier work
# [5] = tested on: Pacific oyster (Crassostrea gigas) oocytes; conditions: Example 2.7
# Method: Approximately 2.2 million unfrozen or thawed oocytes from 8 individuals were added to 500 mL of SW and fertilised at a ratio of 100 sperm per oocyte. After a contact time of ˜12 min, the fertilised oocytes were transferred into tanks containing 150 L of SW and 1 mg L^−1 EDTA at 23° C. After 24 h, the tanks were drained through a 45-μm mesh and subsamples taken to determine the percentage of oocytes reaching D-larvae in each treatment.
# The number of D-larvae was standardized for each female so that the four rearing tanks (2×cryopreserved and 2×unfrozen) all contained the same number of larvae. The larvae were resuspended in 2.5 L tanks in a continuous exchange larval rearing system and fed a mixed diet of Chaetoceros calcitrans and Isochrisis galbana (A Janke, H Kaspar, N King, S Foster, Abstracts of the World Aquaculture Society Conference, 1st-4th Mar. 2004, Hawaii, World Aquaculture Society, Louisiana State University, Baton Rouge, La., (2004), 312). Tanks were cleaned and larvae screened every second day to remove dead, abnormal or slow-growing larvae. Competent larvae were induced to metamorphose by bath application of 10^−4 M epinephrine (S L Coon, D B Bonar, Journal of Experimental Marine Biology and Ecology, (1985), 94, 211) for 3 to 5 h. […] The number of D-larvae in each treatment that developed to eyed larvae stage and spat was determined. […]
smiles,measurement,setting,value
OC[C@H]1O[C@@](CO)(O[C@H]2O[C@H](CO)[C@@H](O)[C@H](O)[C@H]2O)[C@@H](O)[C@@H]1O [sucrose],fertilisation of oocytes after cryopreservation,[1],none of the oocytes were able to be fertilised
same,oocytes staining as live after cryopreservation,[1],7%
OC[C@H]1O[C@H](O[C@H]2O[C@H](CO)[C@@H](O)[C@H](O)[C@H]2O)[C@H](O)[C@@H](O)[C@@H]1O [trehalose],effect on oocyte fertilisation post-thaw,"[2]; Example 2.2, trehalose above 0.1 M added to 10% EG in MQ",significant reduction in fertilisation
"C[S+](C)[O-] [Me2SO, dimethyl sulfoxide]",oocyte fertilisation post-thaw,"[2]; Example 2.1, 15% Me2SO in MQ with 0.85% w/v PVP, standard freezing/thawing",Highest fertilisation rates
same,fertilisation achieved with the thawed oocytes,Pacific oyster oocytes [3],less than 0.5%
same,thawed oocytes developing to D-larvae,Pacific oyster oocytes [3],less than 0.005%
same,outcome of cryopreservation attempt,Pacific oyster oocytes [4],entirely unsuccessful
same,fertilisation of oocytes after cryopreservation,[1],none of the oocytes were able to be fertilised
same,oocytes staining as live after cryopreservation,[1],7%
"OCCO [EG, ethylene glycol]",post-thaw fertilisation,"[2]; Example 2.10, 10% EG in MQ, thawed in water bath at 3° C.",79%
same,post-thaw fertilisation,"[2]; Example 2.10, 10% EG in MQ, thawed in water bath at 28° C.",71%
same,post-thaw fertilisation,"[2]; Example 2.10, 10% EG in MQ, thawed in water bath at 60° C.",61%
same,post-thaw fertilisation,"[2]; Example 2.10, 10% EG in MQ, thawed in water bath at 90° C.",52%
same,oocyte fertilisation post-thaw,"[2]; Example 2.1, 100% EG (so in the source) in MQ with 0.85% w/v PVP, standard freezing/thawing",Highest fertilisation rates
same,"oocyte fertilisation post-thaw, effect of holding temperature","[2]; Example 2.5, 10% EG in MQ, holding for 5 min at either −10 or −12° C.",best results
same,"oocyte fertilisation post-thaw, effect of freezing rate","[2]; Example 2.6, 10% EG in MQ, slowest post-hold cooling rate (0.3° C. min−1)",best results
same,oocyte fertilisation post-thaw,"[2]; Example 2.7, 10% EG in MQ, no PVP, −10° C. hold, 0.3° C. min−1 to −35° C., mean±se",52.1±1.2%
same,post-thaw fertilisation,"[2]; Example 2.8, 10% EG in MQ, plunging at −25° C.",5%
same,post-thaw fertilisation,"[2]; Example 2.8, 10% EG in MQ, plunging at −35° C.",72%
same,post-thaw fertilisation,"[2]; Example 2.8, 10% EG in MQ, plunging at −45° C.",76%
same,post-thaw fertilisation rate,[2]; held at −16° C. for 5 min,31%
same,post-thaw fertilisation rate,[2]; held at −20° C. for 5 min,3%
same,"percentage of fertilised oocytes developing to D-larvae, fresh versus cryopreserved",[5]; P=0.126,no significant difference
same,"proportion of larvae developing to eyed larvae or spat, fresh versus cryopreserved",[5]; P=0.516 and 0.418,no difference
CO [methanol],oocyte fertilisation post-thaw,"[2]; Example 2.1, methanol 2.5, 5, 10% v/v in MQ with 0.85% w/v PVP, standard freezing/thawing",No oocytes were fertilised
